Data from ChEMBL document CHEMBL1833885 (Bioorg Med Chem Lett, 2011).
pKi: −log10 of the molar value.

Key:
Carbonic anhydrase 9 = Carbonic anhydrase 9 (Homo sapiens, UniProt Q16790)
Carbonic anhydrase 1 = Carbonic anhydrase 1 (Homo sapiens, UniProt P00915); experiment: Inhibition of human carbonic anhydrase 1-catalyzed CO2 hydration activity by stopped flow assay
Sequence of Carbonic anhydrase 1 (P00915 whole entry): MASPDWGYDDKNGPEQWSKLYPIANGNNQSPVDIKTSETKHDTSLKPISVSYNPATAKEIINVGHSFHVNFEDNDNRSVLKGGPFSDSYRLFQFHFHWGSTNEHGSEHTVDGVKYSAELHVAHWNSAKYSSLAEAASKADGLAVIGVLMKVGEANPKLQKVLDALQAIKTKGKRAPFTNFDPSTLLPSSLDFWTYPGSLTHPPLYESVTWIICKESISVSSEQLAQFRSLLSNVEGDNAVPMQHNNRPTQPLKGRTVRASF

## NS(=O)(=O)c1ccccc1C#Cc1ccccc1
Carbonic anhydrase 9
  pKi: 5.20

## NS(=O)(=O)c1ccc(C#Cc2cccc(F)c2)cc1
Carbonic anhydrase 9
  pKi: 8.24

## COc1cccc(C#Cc2ccc(S(N)(=O)=O)cc2)c1
Carbonic anhydrase 9
  pKi: 8.19

## Cc1ccc(C#Cc2ccccc2S(N)(=O)=O)cc1
Carbonic anhydrase 1
  pKi: 3.17
Carbonic anhydrase 9
  pKi: 5.07

## NS(=O)(=O)c1ccccc1C#Cc1cccc(F)c1
Carbonic anhydrase 1
  pKi: 3.38
Carbonic anhydrase 9
  pKi: 5.07
